pIC50: −log10 of the molar value.
How the values were obtained:
Type in all cases: cell-based, human
[1] = tested on: 1411HP germ cell tumor cell line; test: SRB-cytotoxicity assay, 1411HP; settings: for effect on multi-drug resistance of 1411HP cells: compared with cisplatin
Procedure: (§1) The cytotoxic activity of 5b was established by standard colorimetric tests (SRB- and MTT-assays) against various tumor cell lines of different entities. For the SRB cytotoxicity assay, dose-response curves of the testicular germ cell tumor cell lines exposed to drug concentrations of 0.001-10 μM were established using the sulforhodamine-B (SRB) microcuiture colorimetric assay (Papazisis et al. Optimization of the sulforhodamine B colorimetric assay. J. Immunol. Methods 1997, 208, 151-158) and performed as described in: Müller et al. Failure of activation of caspase-9 induces a higher threshold for apoptosis and cisplatin resistance in testicular cancer. Cancer Res. 2003, 63, 513-521. Briefly, cells were seeded into 96-well plates on day 0, at cell densities previously determined to ensure exponential cell growth during the period of the experiment. On day 1, cells were treated with the drugs dissolved in medium to give the appropriate concentrations for indicated times and the percentage of surviving cells relative to untreated controls was determined on day 5.

[2] = tested on: H12.1 germ cell tumor, 1411HP germ cell tumor, A2780 ovarian carcinoma, HT29 colon carcinoma, DLD1 colon carcinoma, HCT8 colon carcinoma; test: SRB-cytotoxicity assay in a panel of tumor cell lines; settings: H12.1, 1411HP
Procedure: as §1
The compounds 5b, 6b, 5f and 6f as well as the reference compound 25f (Wang et al.) were furthermore subjected to an SRB-cytotoxicity assay in a panel of tumor cell lines (H12.1 germ cell tumor, 1411HP germ cell tumor, A2780 ovarian carcinoma, HT29 colon carcinoma, DLD1 colon carcinoma, HCT8 colon carcinoma).

[3] = tested on: MCF-7/Topo breast carcinoma cells; test: MTT cell growth inhibition, MCF-7/Topo; settings: MCF-7/Topo (BCRP+)
Procedure: The effects of the compounds 5b, 6b, 8a, and 8e according to the present invention and of the reference compound 25f (Wang et al., J. Med. Chem. 2002, 45, 1697-1711) on cells of the following human tumor cell lines were evaluated: 518A2 melanoma, HL-60 leukemia, HT-29 colon carcinoma, KB-V1/Vbl cervical carcinoma, and MCF-7/Topo breast carcinoma.
The HL-60 cells were obtained from the German Collection of Biological Material (DSMZ), Braunschweig, Germany; the human 518A2 melanoma cells as well as the testicular germ cell tumor cell lines H12.1 and 1411HP were cultured in the department of oncology and hematology, Medical Faculty of the Martin-Luther University, Halle, Germany; the KBV1/Vbl and the MCF-7/Topo cells were obtained from the Institute of Pharmacy of the University Regensburg, Germany; and the colon HT-29 cells from the University Hospital Erlangen, Germany. The HL-60 and the HT-29 cells were grown in RPMI-1640 medium supplemented with 10% fetal calf serum (FCS), 100 IU/mL penicillin G, 100 μg/mL streptomycin sulfate, 0.25 μg/mL amphotericin B and 250 μg/mL gentamycine (all from Gibco, Egenstein, Germany). The 518A2 and the KB-V1/Vbl cells were cultured in Dulbecco's Modified Eagle Medium (D-MEM, Gibco) containing 10% FCS, 100 IU/mL penicillin G, 100 μg/mL streptomycin sulfate, 0.25 μg/mL amphotericin B and 250 μg/mL gentamycine. The MCF-7/Topo cells were grown in E-MEM medium (Sigma) supplemented with 2.2 g/L NaHCO3, 110 mg/L sodium pyruvate and 5% FCS. The cells were maintained in a moisture-saturated atmosphere (5% CO2) at 37° C. in 75-mL culture flasks (Nunc, Wiesbaden, Germany). They were serially passaged following trypsinisation by 0.05% trypsin/0.02% EDTA (PAA laboratories, Clbe, Germany). Mycoplasma contamination was routinely monitored, and only mycoplasma-free cultures were used.
MTT [3-(4,5-dimethylthiazol-2-yl)-2,5-diphenyltetrazolium bromide](ABCR) was used to identify viable cells which reduce it to a violet formazan (Mosmann, J. Immunol. Methods 1983, 65, 55-63). HL-60 leukemia cells (5×10^5/mL), and cells (5×10^4/mL) of 518A2 melanoma, HT-29 colon, KB-V1/Vbl cervix and MCF-7/Topo breast carcinoma were seeded out in 96-well tissue culture plates and cultured for 24 h. Incubation (5% CO2, 95% humidity, 37° C.) of the cells following treatment with the test compounds was continued for 24, 48 or 72 h. Blank and solvent controls were treated identically. […] The microplates were gently shaken in the dark for 30 min and absorbance at 570 nm and 630 nm (background) was measured with an ELISA plate reader. All experiments were carried out in quadruplicate; the percentage of viable cells was calculated as the mean±SD with controls set to 100%.

518A2 cells = test: ROS generation, NBT assay, 518A2; settings: 50 μM, relative to untreated controls (1%), mean ± SD
Procedure: The generation of reactive oxygen species (ROS) in tumor cells is a sign of cellular stress resulting in severe damage of cellular components such as DNA, lipids or proteins.
For the NBT assay, HL-60 cells (0.5·10^6/mL) were plated in 96-well tissue culture plates, and test compounds were added after 24 h incubation at 37° C. to achieve a final concentration of 50 μM. […] After removal of the cell medium by centrifugation, the cells in each well were resuspended in 100 μL 0.1% NBT, and the plates were placed in the incubator for 1 h. The reduced NBT was solubilized with 100 μl 2 M KOH and 130 μl DMSO for 30 min. The absorbance was measured for each well at 630 and 405 nm (background) using an ELISA plate reader. The adherent 518A2 cells (0.5·10^4/mL) were seeded out in 96-well tissue culture plates after trypsinization and incubation for 24 h at 37° C. to allow attachment, then treated similarly, only that the medium was removed prior to incubation with NBT for 4 h. All experiments were carried out in quadruplicate.

HL-60 cells = test: TUNEL assay; settings: 10 μM; 16 h incubation

| Compound | effect on multi-drug resistance of 1411HP cells [1] | in vitro cytotoxicity compared to 25f [2] | cytotoxicity / efficacy (comparison) [3] | NBT Reduction [%] in 518A2 cells after 24 h (518A2 cells) [%] | apoptotic (TUNEL-positive) cells (HL-60 cells) | pIC50 ([1]; Homo sapiens, 1411HP (chemoresistant), 96 h) |
| --- | --- | --- | --- | --- | --- | --- |
| COc1ccc(-c2c(-c3cc(Br)c(OC)c(OC)c3)ncn2C)cc1N [compound 6b, 1-methyl-5-(3-amino-4-methoxyphenyl)-4-(3-bromo-4,5-dimethoxyphenyl)-imidazole] | breach of the multi-drug resistance of 1411HP cells | superior activity as compared to compound 25f | noticeably less active but still superior to the known imidazole 25f | 1.5 ± 0.2 | about 60% |  |
| COc1ccc(-c2c(-c3cc(Cl)c(OC)c(OC)c3)ncn2C)cc1N [compound 5b, 1-methyl-5-(3-amino-4-methoxyphenyl)-4-(3-chloro-4,5-dimethoxyphenyl)-imidazole] | breach of the multi-drug resistance of 1411HP cells | superior activity as compared to compound 25f | noticeably less active but still superior to the known imidazole 25f | 1.8 ± 0.2 | about 60% | 7.30 to 7.52 |

Source: patent publication US8980933B2, “Combretastatin analogs for use in the treatment of cancer” (Universitat Bayreuth, priority 2010, dated 2015)
